The values that follow come from PMC10763615, “Identification and engineering of potent cyclic peptides with selective or promiscuous binding through biochemical profiling and bioinformatic data analysis” (RSC Chemical Biology, 2023).

Read-outs that look alike come from different tables or passages of the source.

In experiment [1] the target is T1, FGF-R4 ECD (Homo sapiens, UniProt P22455).
T1 construct: DNA constructs for the extracellular domain (ECD) of human FGF-; HPC4 (C); made in house; host or cells: HEK 293-6E
T1 sequence (P22455 22-369 limits assumed): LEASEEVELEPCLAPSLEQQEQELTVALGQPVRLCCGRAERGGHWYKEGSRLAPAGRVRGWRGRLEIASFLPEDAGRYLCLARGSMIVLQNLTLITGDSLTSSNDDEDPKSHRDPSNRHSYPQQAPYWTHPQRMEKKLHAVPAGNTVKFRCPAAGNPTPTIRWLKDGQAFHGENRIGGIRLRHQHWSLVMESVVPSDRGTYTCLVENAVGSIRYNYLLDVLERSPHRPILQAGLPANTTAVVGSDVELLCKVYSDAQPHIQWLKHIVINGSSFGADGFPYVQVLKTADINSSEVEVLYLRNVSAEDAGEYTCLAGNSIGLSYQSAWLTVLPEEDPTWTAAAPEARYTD
As to the kind of experiment: single concentration BLI of crude peptides. Format: binding. To be noted: crude NNK peptides, single concentration BLI (Table S3); read-out: KD (4). An outline of the steps: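 Streptavidin biosensors carrying biotinylated FGF receptor ECD were immersed in peptide (~1 μM for crude single-point runs, a concentration series for purified peptides) and then in peptide-free buffer. KD was obtained by fitting the BLI association and dissociation curves.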

In experiment [2] the target is T2, FGFR4/KLB (Fc-fused human FGF-R4 with beta-klotho) (Homo sapiens, UniProt P22455).
T2 sequence (P22455 22-369 limits assumed): T1 sequence (P22455 22-369 limits assumed)
As to the kind of experiment: AlphaScreen FGF21 competitive binding assay. On the technique in general: In Alpha technology, singlet oxygen from a donor bead excites a nearby acceptor bead.
Protocol: Alphascreen binding assay
(§2) The competitive binding assay was carried out according to the methods detailed in Hansen. et al using
(§3) AlphaScreen.3 All reagents and samples were prepared in assay buffer: 40mM Hepes, 140mM NaCl, 1mM
(§4) CaCl2, 0,05% Tween20, pH=7.5, 0.1% BSA. In brief, recombinant human beta-klotho (R&D Systems) was
(§5) preincubated for 60 min with the ectodomain, either Fc-fused human FGF-R1alpha(IIIc), FGF-R3alpha(IIIc)
(§6) or FGF-R4 (R&D Systems), and the mixture was added to the test peptides in OptiPlate™ (PerkinElmer).
(§7) Biotinylated FGF21 and heparin were further added to each well. AlphaScreen bead mix (1:1 mix of Protein
(§8) A acceptor beads/ streptavidin-coated donor beads, PerkinElmer) were added to each well incubated
(§9) overnight at RT in the dark, and measured on a plate reader (Envision). Assays were carried out in triplicates
(§10) with concentrations ranging from 3, 10, 30, 100, 300 ,1000 and 3000 nM of peptide. No peptide control
(§11) (media only) was used as a negative control, and unlabeled FGF21 and FGF1 as positive control.
(§12) competing with biotinylated natural FGF21 ligand.

In experiment [3] the target is T3, FGF-R1C ECD (Homo sapiens, UniProt P11362).
T3 sequence (P11362 22-376 limits assumed): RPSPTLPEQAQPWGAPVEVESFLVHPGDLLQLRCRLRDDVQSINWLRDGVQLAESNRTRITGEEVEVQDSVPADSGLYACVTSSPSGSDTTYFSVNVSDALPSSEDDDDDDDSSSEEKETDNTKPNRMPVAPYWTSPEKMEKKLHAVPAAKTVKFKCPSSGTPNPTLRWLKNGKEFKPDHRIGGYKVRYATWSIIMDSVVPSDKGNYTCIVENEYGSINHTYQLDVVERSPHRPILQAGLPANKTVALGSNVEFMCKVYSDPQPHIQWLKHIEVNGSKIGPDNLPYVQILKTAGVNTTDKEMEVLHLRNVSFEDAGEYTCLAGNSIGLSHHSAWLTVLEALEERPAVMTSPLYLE
Put plainly: biochemical. Format: binding. Details: DNA constructs for the extracellular domain (ECD) of human FGF-; HPC4 (C); made in house; host or cells: HEK 293-6E. An outline of the steps:
(§1)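 Biolayer interferometry with biotinylated FGF-R ECD on streptavidin biosensors in PBS pH 7.4, 0.05% Tween-20, 0.01% BSA. Multi-concentration: purified peptide dilution series fitted to a multi-point KD model.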

Experiment [4] concerns the target T4, FGF-R3C ECD (Homo sapiens, UniProt P22607).
T4 sequence (P22607 23-375 limits assumed): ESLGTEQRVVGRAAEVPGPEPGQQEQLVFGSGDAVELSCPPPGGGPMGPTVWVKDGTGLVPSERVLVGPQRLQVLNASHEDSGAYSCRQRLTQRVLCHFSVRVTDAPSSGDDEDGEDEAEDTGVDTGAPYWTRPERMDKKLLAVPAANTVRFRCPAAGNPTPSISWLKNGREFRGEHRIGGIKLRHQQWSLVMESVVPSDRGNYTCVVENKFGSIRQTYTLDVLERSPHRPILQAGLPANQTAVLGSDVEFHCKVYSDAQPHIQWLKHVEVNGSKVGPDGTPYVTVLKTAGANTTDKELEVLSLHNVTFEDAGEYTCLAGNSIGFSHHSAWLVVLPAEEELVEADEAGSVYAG
Put plainly: biochemical. Format: binding. Also noted: DNA constructs for the extracellular domain (ECD) of human FGF-; HPC4 (C); made in house; host or cells: HEK 293-6E. An outline of the steps: as §1

For experiment [5], the target named is T5, FGFR1c/KLB (Fc-fused human FGF-R1alpha(IIIc) with beta-klotho) (Homo sapiens, UniProt P11362).
T5 sequence (P11362 22-376 limits assumed): T3 sequence (P11362 22-376 limits assumed)
Put plainly: AlphaScreen FGF21 competitive binding assay.
Protocol: Alphascreen binding assay
as §2, §3, §4, §5, §6, §7, §8, §9, §10, §11, §12

Experiment [6] deals with T6, FGFR3c/BKL (Fc-fused human FGF-R3alpha(IIIc) with beta-klotho) (Homo sapiens, UniProt P22607).
T6 sequence (P22607 23-375 limits assumed): T4 sequence (P22607 23-375 limits assumed)
Put plainly: AlphaScreen FGF21 competitive binding assay.
Protocol: Alphascreen binding assay
as §2, §3, §4, §5, §6, §7, §8, §9, §10, §11, §12

Experiment [7] concerns the target T3, FGF-R1C ECD. Put plainly: biochemical. Put shortly: as §1
The target in experiment [8] is T4, FGF-R3C ECD. As to the kind of experiment: biochemical. Put shortly: as §1
The target of experiment [9] is T1, FGF-R4 ECD. Put plainly: multi-concentration BLI of purified peptides. Type of experiment: binding. The conditions noted are these: purified NNK library peptides. An outline of the steps: as §1

One may read the Kd as the free concentration of one partner at which half of the binding sites on the other are occupied at equilibrium, for simple one-to-one binding. Broadly, the IC50 is the concentration that inhibits the measured activity by half. `CC[C@H](C)[C@@H]1NC(=O)[C@@H](NC(=O)[C@@H](N)CCSC)CSSC[C@@H](C(=O)NCC(=O)N[C@@H](CO)C(=O)NCC(=O)N[C@@H](CO)C(=O)N[C@@H](CC(=O)O)C(=O)N[C@@H](Cc2ccc(O)cc2)C(=O)N[C@@H](CCCCN)C(=O)N[C@@H](CC(=O)O)C(=O)N[C@@H](CC(=O)O)C(=O)N[C@@H](CC(=O)O)C(=O)N[C@@H](CC(=O)O)C(=O)N[C@@H](CCCCN)C(N)=O)NC(=O)[C@H](CCCNC(=N)N)NC(=O)[C@H]([C@@H](C)O)NC(=O)[C@H](Cc2c[nH]c3ccccc23)NC(=O)[C@H](Cc2ccc(O)cc2)NC(=O)[C@H](CCC(N)=O)NC(=O)[C@H](Cc2ccc(O)cc2)NC(=O)[C@H]([C@@H](C)O)NC(=O)[C@H](Cc2ccc(O)cc2)NC(=O)[C@H](Cc2c[nH]c3ccccc23)NC(=O)[C@H](CCCCN)NC(=O)CNC1=O` [1C.1]: the Kd is > 10000 nM on FGF-R4 ECD [1]; 488 nM on FGF-R1C ECD [3]; > 10000 nM on FGF-R3C ECD [4]; 111 nM on FGF-R1C ECD [7]; > 1000 nM at FGF-R3C ECD [8]; > 1000 nM on FGF-R4 ECD [9]. Moreover, the figures for the IC50 in experiment [2], in experiment [5] and in experiment [6] were > 1000 nM, 249 nM and > 1000 nM, respectively.

Take `CC[C@H](C)[C@@H]1NC(=O)[C@@H](NC(=O)[C@H](CCSC)NC(C)=O)CSSC[C@@H](C(=O)NCC(=O)N[C@@H](CO)C(=O)NCC(=O)N[C@@H](CO)C(=O)N[C@@H](CC(=O)O)C(=O)N[C@@H](Cc2ccc(O)cc2)C(=O)N[C@@H](CCCCN)C(=O)N[C@@H](CC(=O)O)C(=O)N[C@@H](CC(=O)O)C(=O)N[C@@H](CC(=O)O)C(=O)N[C@@H](CC(=O)O)C(=O)N[C@@H](CCCCN)C(N)=O)NC(=O)[C@H](Cc2ccccc2)NC(=O)[C@H](CCCNC(=N)N)NC(=O)[C@H](CCCCN)NC(=O)[C@H](Cc2c[nH]cn2)NC(=O)[C@H](C)NC(=O)[C@H](CC(C)C)NC(=O)[C@H](Cc2ccccc2)NC(=O)[C@H](CCSC)NC(=O)[C@H](CCCCN)NC1=O` [4.6]: the Kd at FGF-R4 ECD [1] was 97 nM; at FGF-R1C ECD [3] it was > 10000 nM; at FGF-R3C ECD [4] it was > 10000 nM; on FGF-R1C ECD [7] it was > 1000 nM; at FGF-R3C ECD [8], > 1000 nM; at FGF-R4 ECD [9], 358 nM. For the same compound, the IC50 in experiment [2], in experiment [5] and in [6] was > 1000 nM in each case.

Turning to `CSCC[C@H](N)C(=O)N[C@H]1CSSC[C@@H](C(=O)NCC(=O)N[C@@H](CO)C(=O)NCC(=O)N[C@@H](CO)C(=O)N[C@@H](CC(=O)O)C(=O)N[C@@H](Cc2ccc(O)cc2)C(=O)N[C@@H](CCCCN)C(=O)N[C@@H](CC(=O)O)C(=O)N[C@@H](CC(=O)O)C(=O)N[C@@H](CC(=O)O)C(=O)N[C@@H](CC(=O)O)C(=O)N[C@@H](CCCCN)C(N)=O)NC(=O)[C@H](Cc2ccccc2)NC(=O)[C@@H]2CCCN2C(=O)[C@H]([C@@H](C)O)NC(=O)[C@H](CC(C)C)NC(=O)[C@H](Cc2c[nH]cn2)NC(=O)[C@H](Cc2c[nH]cn2)NC(=O)[C@H](Cc2ccccc2)NC(=O)[C@H](CC(C)C)NC(=O)[C@H](CCCNC(=N)N)NC(=O)[C@H](Cc2c[nH]c3ccccc23)NC(=O)[C@H](CCCNC(=N)N)NC(=O)[C@H](Cc2ccccc2)NC1=O` [1C.10], the Kd at FGF-R4 ECD [1] is 79 nM; on FGF-R1C ECD [3] it was 50 nM; at FGF-R3C ECD [4], > 10000 nM; at FGF-R1C ECD [7] it was 101 nM; at FGF-R3C ECD [8] it was > 1000 nM; on FGF-R4 ECD [9], 73 nM. Further, the IC50 in experiment [2] is 283 nM; in [5], 84 nM; in [6], > 1000 nM.

In the case of `CC[C@H](C)[C@@H]1NC(=O)[C@H](C(C)C)NC(=O)[C@H](Cc2c[nH]cn2)NC(=O)[C@@H](NC(=O)[C@H](CCSC)NC(C)=O)CSSC[C@@H](C(=O)NCC(=O)N[C@@H](CO)C(=O)NCC(=O)N[C@@H](CO)C(=O)N[C@@H](CC(=O)O)C(=O)N[C@@H](Cc2ccc(O)cc2)C(=O)N[C@@H](CCCCN)C(=O)N[C@@H](CC(=O)O)C(=O)N[C@@H](CC(=O)O)C(=O)N[C@@H](CC(=O)O)C(=O)N[C@@H](CC(=O)O)C(=O)N[C@@H](CCCCN)C(N)=O)NC(=O)[C@H](Cc2ccc(O)cc2)NC(=O)[C@H](CCCNC(=N)N)NC(=O)[C@H](Cc2c[nH]c3ccccc23)NC(=O)[C@H](CO)NC(=O)[C@H](CCCNC(=N)N)NC(=O)[C@H](Cc2c[nH]c3ccccc23)NC(=O)[C@H](CC(C)C)NC1=O` [4.2], the Kd on FGF-R4 ECD [1] was 93 nM; on FGF-R1C ECD [3], > 10000 nM; at FGF-R3C ECD [4] it was > 10000 nM; at FGF-R1C ECD [7], > 1000 nM; on FGF-R3C ECD [8] it was > 1000 nM; on FGF-R4 ECD [9], 51 nM. Further, the IC50 was 682 nM in experiment [2], > 1000 nM in experiment [5] and > 1000 nM in experiment [6].

Consider `CC[C@H](C)[C@@H]1NC(=O)[C@@H](NC(=O)[C@H](CCSC)NC(C)=O)CSSC[C@@H](C(=O)NCC(=O)N[C@@H](CO)C(=O)NCC(=O)N[C@@H](CO)C(=O)N[C@@H](CC(=O)O)C(=O)N[C@@H](Cc2ccc(O)cc2)C(=O)N[C@@H](CCCCN)C(=O)N[C@@H](CC(=O)O)C(=O)N[C@@H](CC(=O)O)C(=O)N[C@@H](CC(=O)O)C(=O)N[C@@H](CC(=O)O)C(=O)N[C@@H](CCCCN)C(N)=O)NC(=O)[C@H](C(C)C)NC(=O)[C@H](C(C)C)NC(=O)[C@H](Cc2c[nH]c3ccccc23)NC(=O)[C@H](Cc2ccccc2)NC(=O)[C@H](CC(=O)O)NC(=O)[C@H](CO)NC(=O)[C@H](CC(C)C)NC(=O)[C@H](CCCNC(=N)N)NC(=O)[C@H](Cc2ccc(O)cc2)NC1=O` [1C.6], for which the Kd is 47 nM on FGF-R4 ECD [1]; 19 nM on FGF-R1C ECD [3]; 12 nM on FGF-R3C ECD [4]; 53 nM at FGF-R1C ECD [7]; 361 nM at FGF-R3C ECD [8]; 70 nM at FGF-R4 ECD [9]. The IC50 amounted to 60 nM in experiment [2], 29 nM in experiment [5] and 18 nM in [6].

In the case of `CSCC[C@H](NC(C)=O)C(=O)N[C@H]1CSSC[C@@H](C(=O)NCC(=O)N[C@@H](CO)C(=O)NCC(=O)N[C@@H](CO)C(=O)N[C@@H](CC(=O)O)C(=O)N[C@@H](Cc2ccc(O)cc2)C(=O)N[C@@H](CCCCN)C(=O)N[C@@H](CC(=O)O)C(=O)N[C@@H](CC(=O)O)C(=O)N[C@@H](CC(=O)O)C(=O)N[C@@H](CC(=O)O)C(=O)N[C@@H](CCCCN)C(N)=O)NC(=O)[C@H](CO)NC(=O)[C@H](CCCNC(=N)N)NC(=O)[C@H](Cc2ccccc2)NC(=O)[C@H](C)NC(=O)[C@H](CC(C)C)NC(=O)[C@H](Cc2ccc(O)cc2)NC(=O)[C@H](Cc2ccc(O)cc2)NC(=O)[C@H](C)NC(=O)[C@H](CC(C)C)NC(=O)[C@H](Cc2c[nH]cn2)NC1=O` [4.3], the dissociation constant Kd is 58 nM on FGF-R4 ECD [1]; > 10000 nM on FGF-R1C ECD [3]; > 10000 nM at FGF-R3C ECD [4]; > 1000 nM on FGF-R1C ECD [7]; > 1000 nM at FGF-R3C ECD [8]; 86 nM at FGF-R4 ECD [9]. Moreover, the values for the IC50 in experiment [2], in [5] and in experiment [6] were 508 nM, > 1000 nM and > 1000 nM, respectively.
